Source: US9242973B2, “Chromane compounds” (CoMentis, Inc., priority 2012, dated 2016)
Like-named read-outs stand apart in the source and are kept apart here.

Tests used:
BACE1 = BACE1 (Homo sapiens (Human), UniProt P56817); experiment: Test Example 1: BACE1 inhibition by FRET (MCA substrate); IC50 and Ki; conditions: read-out: Test Example 1 IC50
[1] = test system: Aβ production in SK-N-BE(2) neuroblastoma cells; experiment: Test Example 3: Aβ production inhibition in cell (Aβ40 ELISA, SK-N-BE(2)); conditions: Homo sapiens, SKNBE2, 6 h
hERG potassium channel = hERG potassium channel (Homo sapiens (Human), UniProt Q12809); experiment: Test Example 5: hERG inhibition, automated patch clamp in hERG-expressing CHO cells; conditions: read-out: Test Example 5 hERG IC50, QPatch, room temperature
Sequence of hERG potassium channel (Q12809 whole entry): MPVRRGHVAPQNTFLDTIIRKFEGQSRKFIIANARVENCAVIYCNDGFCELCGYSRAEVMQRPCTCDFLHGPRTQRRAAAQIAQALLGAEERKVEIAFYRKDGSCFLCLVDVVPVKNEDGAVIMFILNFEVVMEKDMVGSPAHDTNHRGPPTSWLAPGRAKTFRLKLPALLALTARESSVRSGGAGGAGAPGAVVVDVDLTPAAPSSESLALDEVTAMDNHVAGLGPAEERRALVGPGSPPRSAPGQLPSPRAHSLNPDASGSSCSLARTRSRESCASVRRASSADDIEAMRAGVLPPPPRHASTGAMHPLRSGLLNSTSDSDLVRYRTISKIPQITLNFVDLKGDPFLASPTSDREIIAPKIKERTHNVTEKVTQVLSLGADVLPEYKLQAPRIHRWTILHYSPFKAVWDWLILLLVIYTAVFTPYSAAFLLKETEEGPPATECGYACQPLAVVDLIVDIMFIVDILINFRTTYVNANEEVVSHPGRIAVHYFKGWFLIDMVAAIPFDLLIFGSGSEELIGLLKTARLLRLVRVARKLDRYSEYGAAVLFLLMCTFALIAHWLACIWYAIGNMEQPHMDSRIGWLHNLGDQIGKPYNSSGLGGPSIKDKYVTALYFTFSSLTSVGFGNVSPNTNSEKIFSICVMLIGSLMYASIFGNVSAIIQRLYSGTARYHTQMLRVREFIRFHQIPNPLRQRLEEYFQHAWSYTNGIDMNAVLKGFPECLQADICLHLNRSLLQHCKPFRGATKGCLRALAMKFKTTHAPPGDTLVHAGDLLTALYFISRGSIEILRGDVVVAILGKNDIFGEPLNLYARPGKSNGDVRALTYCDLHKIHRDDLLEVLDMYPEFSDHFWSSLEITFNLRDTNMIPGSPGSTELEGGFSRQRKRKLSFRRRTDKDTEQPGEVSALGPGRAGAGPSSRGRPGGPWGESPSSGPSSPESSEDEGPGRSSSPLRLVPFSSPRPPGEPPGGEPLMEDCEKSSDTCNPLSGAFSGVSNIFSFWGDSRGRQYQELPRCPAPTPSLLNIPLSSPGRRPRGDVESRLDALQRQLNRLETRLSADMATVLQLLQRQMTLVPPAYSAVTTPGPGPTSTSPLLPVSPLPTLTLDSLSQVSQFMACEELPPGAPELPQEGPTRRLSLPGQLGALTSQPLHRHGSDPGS

[2] = FRET, MCA substrate 3 μM, BACE1 65 nM, pH 4.4
[3] = read-out: Test Example 3 IC50, SK-N-BE(2) cells, 6 hours, Aβ40 ELISA normalized by viability

Sequence of BACE1 (P56817 75-416): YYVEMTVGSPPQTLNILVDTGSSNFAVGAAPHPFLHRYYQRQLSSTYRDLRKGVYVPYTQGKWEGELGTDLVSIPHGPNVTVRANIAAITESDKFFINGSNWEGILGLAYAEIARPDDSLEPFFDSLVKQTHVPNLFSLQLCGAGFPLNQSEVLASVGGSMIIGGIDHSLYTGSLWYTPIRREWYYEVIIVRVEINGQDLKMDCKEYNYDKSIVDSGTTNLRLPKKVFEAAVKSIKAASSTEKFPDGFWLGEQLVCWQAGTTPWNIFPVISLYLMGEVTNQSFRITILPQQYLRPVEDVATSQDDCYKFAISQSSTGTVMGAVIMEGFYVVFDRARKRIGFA

| Compound | IC50 [1, 3] [nM] | other results |
| --- | --- | --- |
| CCCC1Oc2ccc(Br)cc2C2(COC(N)=N2)C12COC2 (single isomer, unassigned) [RP 11a] | – | IC50 (BACE1; [2]): 15600 nM |
| CCCC1Oc2ccc(Br)cc2C2(COC(N)=N2)C12COC2 (single isomer, unassigned) [RP 11b] | – | IC50 (BACE1; [2]): 17400 nM |
| CC1(C)Oc2ccc(NC(=O)c3ccc(F)cn3)cc2C2(COC(N)=N2)C12COC2 (centres unmarked) [Example 28] | – | IC50 ([1]; read-out: Test Example 3 IC50): 19 nM; IC50 (BACE1): 154 nM |
| CC1(C)Oc2ccc(NC(=O)c3ncc(Cl)cc3F)cc2C2(COC(N)=N2)C12COC2 (centres unmarked) [Example 30] | – | IC50 ([1]; read-out: Test Example 3 IC50): 2.3 nM; IC50 (BACE1): 97.5 nM |
| CC1(C)Oc2ccc(NC(=O)c3ccc(C#N)cn3)cc2C2(COC(N)=N2)C12COC2 (centres unmarked) [Example 197] | – | IC50 (hERG potassium channel): > 10000 nM |
| NC1=NC2(CO1)c1cc(NC(=O)c3ccc(Cl)cn3)ccc1OCC21CC1 (centres unmarked) [RP 32] | – | IC50 (BACE1; [2]): 418 nM |
| NC1=NC2(c3cc(-c4cncnc4)ccc3OCC23CC3)c2cccc(F)c21 (centres unmarked) [RP 199] | 240 | – |
| NC1=NC2(CO1)c1cc(-c3cncnc3)ccc1OC(Cc1ccccc1)C21COC1 (centres unmarked) [RP 200] | 26 | – |
| CC#Cc1cncc(-c2ccc3c(c2)C2(COC(N)=N2)C2(COC2)C(Cc2ccccc2)O3)c1 (centres unmarked) [RP 201] | 8.7 | – |
| NC1=NC2(CO1)c1cc(-c3cncnc3)ccc1OC(CC1CC1)C21COC1 (centres unmarked) [RP 204] | 240 | – |
| CC#Cc1cncc(-c2ccc3c(c2)C2(COC(N)=N2)C2(COC2)C(CC2CC2)O3)c1 (centres unmarked) [RP 205] | 22 | – |
| NC1=NC2(c3cc(-c4cncnc4)ccc3OCC23CC3)C(F)(F)CO1 (centres unmarked) [RP 206] | > 30000 | – |
| NC1=NC2(CO1)c1cc(-c3cncnc3)ccc1OCC21CC(F)(F)C1 (centres unmarked) [RP 208] | 6100 | – |
| NC1=NC2(CO1)c1cc(-c3cccnc3)ccc1OC1(CCC1)C21COC1 (centres unmarked) [RP 209] | 830 | – |
| NC1=NC2(COC1)c1cc(-c3cncnc3)ccc1OCC21CC1 (centres unmarked) [RP 215, 6′-(pyrimidin-5-yl)-6″H-dispiro[cyclopropane-1,3′-chromene-4′,3″-[1,4]oxazin]-5″-amine] | 240 | – |
